From the NIST ThermoML archive (doi:10.1021/je030106k)
Numbers after ± are expanded uncertainties.

Conditions: Liquid

Compound	vapor or sublimation pressure (273.15 K)	vapor or sublimation pressure (283.15 K)	vapor or sublimation pressure (293.15 K)	vapor or sublimation pressure (303.15 K)
CCC [propane]	475 ± 1.8 kPa	637.8 ± 2.2 kPa	836 ± 2.6 kPa	1078.4 ± 3.2 kPa
CC(C)C [2-methylpropane]	157.2 ± 1.6 kPa	221.8 ± 1.8 kPa	303.4 ± 2.1 kPa	405.2 ± 2.6 kPa
